The test system of data set [1] is H9. As to the kind of experiment: Effective concentration against HIV-1 replication in H9 lymphocytic cells; No suppression. Type of data set: functional, cell-based, Homo sapiens.
The test system of data set [2] is H9. Nature of the data set: Concentration that inhibits uninfected H9 cell growth by 50%. The format is functional, cell-based. The following applies: Homo sapiens.
In data set [3] the test system is H9. As to the kind of experiment: Concentration that inhibits uninfected H9 cell growth by 50%.; Not dissolved. Type of data set: functional, cell-based, Homo sapiens.
Data set [4] has as its system H9. As to the kind of experiment: Effective concentration against HIV-1 replication in H9 lymphocytic cells. Type of data set: functional, cell-based. The conditions noted are these: Homo sapiens.
Data set [5] can be described thus: Therapeutic index determined by ratio of IC50 to EC50. The conditions noted are these: read-out: Therapeutic index.
Data set [6] concerns H9. As to the kind of experiment: Concentration that inhibits uninfected H9 cell growth by 50%.; Did not dissolve. Type of data set: functional, cell-based, Homo sapiens.

The structures appear in SMILES notation. In brackets after ≈: the same amount, converted by molar mass.

Turning to `COc1cc2oc(-c3ccccc3)cc(=O)c2c(O)c1O`, the EC50 result in the data set on H9 [1] was “Not Active”. Moreover, inhibition with H9 [2] was half-maximal at 11.5 µg/mL (≈ 40.5 µM) (IC50).
The like results for `CC1=C(O)C(C)(C)C2=C(C(=O)C[C@@H](c3ccccc3)O2)C1=O` were, in that order, “Not Active” and 1.89 µg/mL (≈ 6.34 µM).
`Cc1c(O)c(C=O)c2oc(-c3ccccc3)cc(=O)c2c1O`: in the data set on H9 [3], the IC50 result is recorded as “Insoluble”.
The compound `COc1c(C)c(O)c(/C(O)=C/C(=O)c2ccccc2)c(O)c1C=O` yielded a concentration for a half-maximal effect (EC50) in the data set with H9 [4] of 0.022 µg/mL (≈ 0.067 µM). For the same compound, the IC50 with H9 [2] was determined as 10.7 µg/mL (≈ 32.6 µM). The selectivity ratio in data set [5] was 489.
With `Cc1c(O)c(C=O)c(O)c2c(=O)cc(-c3ccccc3)oc12`, the IC50 result with H9 [6] was “Insoluble”.
Regarding `COc1c(C)c(O)c(C=O)c2c1C(O)C[C@@H](c1ccccc1)O2` (stereo not given in full), the EC50 result with H9 [1] is recorded as “Not Active”. Besides, it took 24.2 µg/mL (≈ 77 µM) to reach half-maximal inhibition with H9 [2] (IC50).
The like results for `COc1c(C)c(O)c2c(=O)cc(-c3ccccc3)oc2c1C` were, in that order, “Not Active” and 19.8 µg/mL (≈ 66.8 µM).
The like results for `COc1c(C)c(O)c2c(c1C)O[C@H](c1ccccc1)CC2=O` were, in that order, “Not Active” and 1.77 µg/mL (≈ 5.93 µM).
The like results for `Cc1c(O)c(C=O)c(O)c(/C(O)=C/C(=O)c2ccccc2)c1O` were, in that order, “Not Active” and 18.8 µg/mL (≈ 59.8 µM).
As for `Cc1c(O)c(C=O)c2c(c1O)C(=O)C[C@@H](c1ccccc1)O2`, the EC50 result with H9 [1] was “Not Active”. It took 2.15 µg/mL (≈ 7.21 µM) to reach half-maximal inhibition with H9 [2] (IC50).
`Cc1c(O)c(C=O)c(O)c2c1O[C@H](c1ccccc1)CC2=O` gave an EC50 in the data set on H9 [4] of 2.3 µg/mL (≈ 7.71 µM). This compound also came in with an IC50 with H9 [2] of 104 µg/mL (≈ 349 µM). In addition, the selectivity ratio in data set [5] was 45.2.
For `COc1c(C)c(O)c2c(c1C=O)O[C@@H](C)[C@H](C(=O)c1ccccc1)C2=O`, the EC50 result with H9 [1] was “Not Active”. The compound also had an IC50 in the data set on H9 [2] of 18.9 µg/mL (≈ 53.3 µM).
`COc1c(C)c(O)c(C=O)c2c1C(=O)C[C@@H](c1ccccc1)O2` came in with an EC50 with H9 [4] of 11 µg/mL (≈ 35.2 µM). Besides, the IC50 in the data set with H9 [2] turned out to be 108 µg/mL (≈ 346 µM). For the same compound, in data set [5], the selectivity ratio came to 9.85.
The like results for `Cc1c(O)c(C)c2c(c1O)C(=O)C[C@@H](c1ccccc1)O2` [DEMETHOXYMATTEUCINOL] were, in that order, 4.97 µg/mL (≈ 17.5 µM), 20.8 µg/mL (≈ 73.2 µM) and 4.18.
Consider `COC1=C(C)C(O)=C(C(=O)/C=C/c2ccccc2)C(=O)C1(C)C` [DESMOSDUMOTIN C], for which the EC50 entry in the data set with H9 [1] is recorded as “Not Active”. In addition, the IC50 in the data set with H9 [2] was found to be 2.29 µg/mL (≈ 7.33 µM).
The like results for `COc1cc2oc(-c3ccccc3)cc(=O)c2c(O)c1OC` [MOSLOFLAVONE] were, in that order, “Not Active” and 20.2 µg/mL (≈ 67.7 µM).
As for `Cc1cn([C@H]2C[C@H](N=[N+]=[N-])[C@@H](CO)O2)c(=O)[nH]c1=O` [ZIDOVUDINE], the EC50 in the data set with H9 [4] was found to be 0.0221 µg/mL (≈ 0.0827 µM).

Source of the values: ChEMBL document CHEMBL1136399, “Anti-AIDS agents 54. A potent anti-HIV chalcone and flavonoids from genus Desmos” (Bioorg Med Chem Lett, 2003).
